{
  "source": "paper PMC8605905",
  "about": "(Oxidative Medicine and Cellular Longevity, 2021)",
  "key": {"ΔK280 tauRD protein": {"biological_target": "T1, ΔK280 tauRD protein (Homo sapiens, UniProt P10636, DEL597-597)", "T1 construct": "E. coli-derived ΔK280 tauRD protein; made in house; host or cells: E. coli", "T1 sequence (P10636 with tags, fused parts or gaps DEL597-597)": "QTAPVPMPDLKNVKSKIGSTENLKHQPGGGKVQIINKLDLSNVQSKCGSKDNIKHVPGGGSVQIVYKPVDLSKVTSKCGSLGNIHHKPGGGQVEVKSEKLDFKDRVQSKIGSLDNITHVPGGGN", "test": "Thioflavin T assay of ΔK280 tauRD aggregation", "format": "biochemical", "conditions": "ΔK280 tauRD 20 μM, compound 1–10 μM, 37°C 48 h; read-out: ΔK280 tauRD aggregation inhibition EC50 (Thioflavin T)", "procedure": "The potential of Congo red and coumarin-chalcone derivatives in inhibiting tau misfolding was assessed using the E. coli-derived ΔK280 tauRD protein [21]. In brief, ΔK280 tauRD protein (20 μM) was incubated with the tested compound (1−10 μM) in buffer (150 mM NaCl, 20 mM Tris-HCl (pH 8.0)) at 37°C for 48 h to form aggregates. Thioflavin T (5 μM) was then added, and the mixture was incubated at room temperature for 25 min. The fluorescence intensity of the samples was measured, and the EC50 was computed as described."}, "caspase 1": {"tested_on": "caspase 1", "test": "Caspase 1 activity in ΔK280 tauRD-DsRed cells", "format": "cell-based, Human", "conditions": "10 μM, ∆K280 tauRD-DsRed cells", "procedure": "(§1) Aβ-GFP or ∆K280 tauRD-DsRed SH-SY5Y cells were seeded into 6-well plates (5 × 10^5/well) and treated with retinoic acid, coumarin-chalcone derivatives, and doxycycline as previously described. On day 8, cells were collected and lysates were prepared with six freeze/thaw cycles. The supernatant was collected by centrifugation, followed by measurement of the caspase 1 activity in 50 μg aliquots of cell extract using the ICE fluorometric assay kit (BioVision, Milpitas, CA, USA). Following incubation of the mixture at 37°C for 2 h, fluorescence was measured with excitation/emission wavelengths at 400/505 nm (FLx800 fluorescence microplate reader). In addition, the collected cells were lysed by sonication. Acetylcholinesterase (AChE) activity in the supernatant was determined in 10 μg aliquots of cell extracts using the AChE activity assay kit (Sigma-Aldrich) according to the manufacture's protocol. Finally, the absorbance at 412 nm was measured using a Multiskan GO spectrophotometer (Thermo Fisher Scientific)."}, "physchem": {"test": "physchem", "format": "physicochemical", "conditions": "aqueous buffer", "procedure": "The coumarin-chalcone derivatives (E)-4-hydroxy-3-(3-(p-tolyl)acryloyl)-2H-chromen-2-one (LM-016), (E)-3-(3-(4-(dimethylamino)phenyl)acryloyl)-4-hydroxy-2H-chromen-2-one (LM-021), and (E)-3-(3-(furan-2-yl)acryloyl)-4-hydroxy-2H-chromen-2-one (LM-022) were synthesized in our laboratory as previously described and examined by using NMR spectroscopy. The LM-016, LM-021, and LM-022 stayed soluble in cell culture medium at concentrations up to 100 μM."}, "Aβ-GFP SH-SY5Y cells": {"tested_on": "Aβ-GFP SH-SY5Y cells", "test": "Western blot in Aβ-GFP SH-SY5Y cells", "format": "cell-based, Human", "conditions": "LM-021 5 μM, immunoblot", "procedure": "To monitor the cAMP-mediated signal transduction pathway, CRE-GFP 293 cells in 6-well plates (1 × 10^6/well) were pretreated with kinase inhibitor H-89 (LC Laboratories, Woburn, MA, USA), KN-62 (Cayman Chemical, Ann Arbor, MI, USA), U0126 (LC Laboratories), or wortmannin (LC Laboratories) (10 μM) for 4 h before forskolin or LM-021 (10 μM) addition for 5 h. GFP fluorescence/protein and total/phosphorylated PKA, CaMKII, ERK, PI3K, and CREB levels were examined. In addition, Aβ-GFP or ∆K280 tauRD-DsRed SH-SY5Y cells were treated with retinoic acid (10 μM) on day 1, followed by the addition of LM-021 (5 or 10 μM) and doxycycline (5 or 2 μg/ml) on day 2, as described. Kinase inhibitors (10 μM) were added on day 6. On day 8, the cells were collected for protein expression analysis of BDNF, BCL2 (BCL2 apoptosis regulator), and BAX (BCL2 associated X, apoptosis regulator), and total/phosphorylated PKA, CaMKII, ERK, PI3K, and CREB. Also, cells were stained with DAPI and assessed for neurite outgrowth as described above.\nTotal proteins from CRE-GFP 293 and Aβ-GFP, ∆K280 tauRD-DsRed SH-SY5Y cells were extracted using lysis buffer (50 mM Tris-HCl (pH 8.0), 150 mM NaCl, 1 mM EDTA (pH 8.0), 1 mM EGTA (pH 8.0), 0.1% SDS, 0.5% sodium deoxycholate, 1% Triton X-100) containing phosphatase and protease inhibitor cocktails (Sigma-Aldrich). Protein concentrations were measured using a protein assay kit (Bio-Rad, Hercules, CA, USA), and 20 μg of proteins was separated with 10% SDS-PAGE and blotted onto polyvinylidene difluoride (PVDF) membranes (Sigma-Aldrich). After blocking, the membrane blot was incubated with primary antibody against GFP (1 : 500; Santa Cruz Biotechnology, Santa Cruz, CA, USA), PKA (1 : 1000; R&D Systems, Minneapolis, MN, USA), p-PKA (T197) (1 : 1000; Cell Signaling, Danvers, MA, USA), ERK (1 : 500; Cell Signaling), p-ERK (T202/Y204) (1 : 500; Cell Signaling), CaMKII (1 : 1000; Santa Cruz Biotechnology), p-CaMKII (T286) (1 : 1000; Cell Signaling), CREB (1 : 1000; Santa Cruz Biotechnology), p-CREB (S133) (1 : 1000; Millipore, Billerica, MA, USA), BDNF (1 : 500; Santa Cruz Biotechnology), BCL2 (1 : 500; BioVision), BAX (1 : 500; BioVision), GAPDH (glyceraldehyde-3-phosphate dehydrogenase, as a loading control) (1 : 1000; MDBio, Taipei, Taiwan), or β-tubulin (1 : 1000, Sigma-Aldrich, as a loading control). The immune complexes were visualized using horseradish peroxidase-conjugated goat anti-mouse or goat anti-rabbit IgG antibody (1 : 5000, GeneTex, Irvine, CA, USA) and a chemiluminescent substrate (Millipore)."}, "[1]": {"tested_on": "Acetylcholinesterase (AChE)", "test": "AChE activity in Aβ-GFP cells", "format": "cell-based", "conditions": "5 μM, vs untreated cells", "procedure": "as §1"}},
  "data": [
    {"smiles": "CN(C)c1ccc(/C=C/C(=O)c2c(O)c3ccccc3oc2=O)cc1", "note": "[LM-021, (E)-3-(3-(4-(dimethylamino)phenyl)acryloyl)-4-hydroxy-2H-chromen-2-one]", "values": [
      {"measurement": "EC50", "setting": "ΔK280 tauRD protein", "result": 10, "unit": "µM"},
      {"measurement": "Caspase 1 activity", "setting": "caspase 1", "result": "lowered caspase 1 activity"},
      {"measurement": "solubility", "setting": "physchem", "result": "≥ 100", "unit": "µM"},
      {"measurement": "BAX protein levels", "setting": "Aβ-GFP SH-SY5Y cells", "result": "reduced"},
      {"measurement": "PKA and ERK protein levels", "setting": "Aβ-GFP SH-SY5Y cells", "result": "rescued the reduction in PKA and ERK, although not significantly"},
      {"measurement": "p-CREB, CREB, pro-BDNF, m-BDNF, and BCL2 protein levels", "setting": "Aβ-GFP SH-SY5Y cells", "result": "significantly increased"},
      {"measurement": "p-PKA, p-CaMKII, and p-ERK protein levels", "setting": "Aβ-GFP SH-SY5Y cells", "result": "significantly upregulated"},
      {"measurement": "AChE activity", "setting": "[1]", "result": "reduced"}
    ]}
  ]
}
